From patent US20260265233A1, “BENZOTHIOPHENE DERIVATIVES AS RXFP1 AGONISTS” (BRISTOL-MYERS SQUIBB COMPANY, priority 2021, published 2026)

Molecular target: T1, human RXFP1 (Homo sapiens, UniProt Q9HBX9)
T1 construct: expressed in transfected cells
T1 sequence (Q9HBX9 1-757): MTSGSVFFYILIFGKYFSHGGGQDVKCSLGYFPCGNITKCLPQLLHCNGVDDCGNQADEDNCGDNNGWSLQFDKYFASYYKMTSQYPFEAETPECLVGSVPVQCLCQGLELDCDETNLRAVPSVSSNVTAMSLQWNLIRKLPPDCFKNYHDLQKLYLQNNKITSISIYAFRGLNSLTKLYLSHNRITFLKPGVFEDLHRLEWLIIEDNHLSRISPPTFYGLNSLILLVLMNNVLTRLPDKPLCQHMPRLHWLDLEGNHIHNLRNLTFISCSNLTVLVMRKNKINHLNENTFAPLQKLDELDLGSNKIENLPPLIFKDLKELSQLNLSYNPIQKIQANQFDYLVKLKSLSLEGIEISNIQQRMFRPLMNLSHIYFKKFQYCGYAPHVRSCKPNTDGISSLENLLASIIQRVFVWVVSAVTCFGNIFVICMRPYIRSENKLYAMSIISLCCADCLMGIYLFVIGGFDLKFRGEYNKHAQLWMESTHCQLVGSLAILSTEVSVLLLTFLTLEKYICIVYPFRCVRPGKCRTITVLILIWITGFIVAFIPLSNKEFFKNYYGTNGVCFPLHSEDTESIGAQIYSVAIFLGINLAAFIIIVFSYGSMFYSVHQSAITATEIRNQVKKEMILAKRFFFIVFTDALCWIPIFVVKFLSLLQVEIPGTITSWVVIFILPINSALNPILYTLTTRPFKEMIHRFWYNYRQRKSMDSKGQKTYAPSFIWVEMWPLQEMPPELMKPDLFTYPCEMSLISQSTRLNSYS
Experiment: hRXFP1 HEK293 cAMP assay (HTRF)
Format: cell-based
Conditions: HEK293 cells stably expressing human RXFP1; 30 min at rt; intracellular cAMP by HTRF
Procedure: RXFP1 Cyclic Adenosine Monophosphate (cAMP) Assays. Human embryonic kidney cells 293 (HEK293) cells and HEK293 cells stably expressing human RXFP1, were cultured in MEM medium supplemented with 10% qualified FBS, and 300 μg/ml hygromycin (Life Technologies). Cells were dissociated and suspended in assay buffer. The assay buffer was HBSS buffer (with calcium and magnesium) containing 20 mM HEPES, 0.05% BSA, and 0.5 mM IBMX. Cells (3000 cells per well, except 1500 cell per well for HEK293 cells stably expressing human RXFP1) were added to 384-well Proxiplates (Perkin-Elmer). Cells were immediately treated with test compounds in DMSO (2% final) at final concentrations in the range of 0.010 nM to 50 μM. Cells were incubated for 30 min at rt. The level of intracellular cAMP was determined using the HTRF HiRange cAMP assay reagent kit (Cisbio) according to manufacturer's instructions. Solutions of cryptate conjugated anti-cAMP and d2 fluorophore-labelled cAMP were made in a supplied lysis buffer separately. Upon completion of the reaction, the cells were lysed with equal volume of the d2-cAMP solution and anti-cAMP solution. After a 1 h rt incubation, time-resolved fluorescence intensity was measured using the Envision (Perkin-Elmer) at 400 nm excitation and dual emission at 590 nm and 665 nm. A calibration curve was constructed with an external cAMP standard at concentrations ranging from 2.7 μM to 0.1 pM by plotting the fluorescent intensity ratio from 665 nm emission to the intensity from the 590 nm emission against cAMP concentrations. The potency and activity of a compound to […] cAMP production was then determined by fitting to a 4-parametric logistic equation from a plot of cAMP level versus compound concentrations.
The examples disclosed below were tested in the human RXFP1 (hRXFP1) HEK293 cAMP assay described above and found to have agonist activity.

Compound: 2-(3′-((2-((4-fluoro-3-(trifluoromethyl) phenyl) carbamoyl)-6-(trifluoromethyl) benzo[b]thiophen-3-yl) carbamoyl)-4′-methoxy-[1, 1′-biphenyl]-3-yl)-2-(tetrahydro-2H-pyran-4-carboxamido) acetic acid [Example 26]
- EC50: 0.153 µM

Compound: COc1ccc(N2CCCC(C(=O)O)C2)cc1C(=O)Nc1c(C(=O)Nc2ccc(F)c(C(F)(F)F)c2)sc2cc(C(F)(F)F)ccc12 (single isomer, unassigned) [Example 4, 1-(3-((2-((4-fluoro-3-(trifluoromethyl)phenyl)carbamoyl)-6-(trifluoromethyl)benzo[b]thiophen-3-yl)carbamoyl)-4-methoxyphenyl) piperidine-3-carboxylic acid]
- EC50: 0.375 µM

Compound: COc1ccc(N2CCCC(C(=O)O)C2)cc1C(=O)Nc1c(C(=O)Nc2ccc(F)c(C(F)(F)F)c2)sc2cc(C(F)(F)F)ccc12 (single isomer, unassigned) [Example 5, 1-(3-((2-((4-fluoro-3-(trifluoromethyl)phenyl)carbamoyl)-6-(trifluoromethyl)benzo[b]thiophen-3-yl)carbamoyl)-4-methoxyphenyl) piperidine-3-carboxylic acid]
- EC50: 0.15 µM

Compound: COc1ccc(N2CCCC(C(=O)NS(C)(=O)=O)C2)cc1C(=O)Nc1c(C(=O)Nc2ccc(F)c(C(F)(F)F)c2)sc2cc(C(F)(F)F)ccc12 (single isomer, unassigned) [Example 6, 1-(3-((2-((4-fluoro-3-(trifluoromethyl)phenyl)carbamoyl)-6-(trifluoromethyl)benzo[b]thiophen-3-yl)carbamoyl)-4-methoxyphenyl)-N-(methylsulfonyl) piperidine-3-carboxamide]
- EC50: 0.349 µM

Compound: COc1ccc(N2CCCC(C(=O)NCC(C)(C)O)C2)cc1C(=O)Nc1c(C(=O)Nc2ccc(F)c(C(F)(F)F)c2)sc2cc(C(F)(F)F)ccc12 (single isomer, unassigned) [Example 7, 1-(3-((2-((4-fluoro-3-(trifluoromethyl)phenyl)carbamoyl)-6-(trifluoromethyl)benzo[b]thiophen-3-yl)carbamoyl)-4-methoxyphenyl)-N-(2-hydroxy-2-methylpropyl) piperidine-3-carboxamide]
- EC50: 0.661 µM

Compound: COc1ccc(N2CCCC(C(=O)NCC(C)(C)O)C2)cc1C(=O)Nc1c(C(=O)Nc2ccc(F)c(C(F)(F)F)c2)sc2cc(C(F)(F)F)ccc12 (single isomer, unassigned) [Example 8, 1-(3-((2-((4-fluoro-3-(trifluoromethyl)phenyl)carbamoyl)-6-(trifluoromethyl)benzo[b]thiophen-3-yl)carbamoyl)-4-methoxyphenyl)-N-(2-hydroxy-2-methylpropyl) piperidine-3-carboxamide]
- EC50: 2.02 µM

Compound: COc1ccc(N2CCC(NCCO)C2)cc1C(=O)Nc1c(C(=O)Nc2ccc(F)c(C(F)(F)F)c2)sc2cc(C(F)(F)F)ccc12 (single isomer, unassigned) [Example 9, N-(4-fluoro-3-(trifluoromethyl)phenyl)-3-(5-(3-((2-hydroxyethyl)amino)pyrrolidin-1-yl)-2-methoxybenzamido)-6-(trifluoromethyl) benzo[b]thiophene-2-carboxamide]
- EC50: 2.38 µM

Compound: COc1ccc(-c2cc(C(NC(=O)C3CCOCC3)C(F)(F)F)ccc2F)cc1C(=O)Nc1c(C(=O)Nc2ccc(F)c(C(F)(F)F)c2)sc2cc(C(F)(F)F)ccc12 (single isomer, unassigned) [Example 20, N-(2,2,2-trifluoro-1-(6-fluoro-3′-((2-((4-fluoro-3-(trifluoromethyl)phenyl)carbamoyl)-6-(trifluoromethyl)benzo[b]thiophen-3-yl)carbamoyl)-4′-methoxy-[1,1′-biphenyl]-3-yl)ethyl)tetrahydro-2H-pyran-4-carboxamide]
- EC50: 0.954 µM

Compound: COc1ccc(-c2cc(C(NC(=O)C3CCOCC3)C(F)(F)F)ccc2F)cc1C(=O)Nc1c(C(=O)Nc2ccc(F)c(C(F)(F)F)c2)sc2cc(C(F)(F)F)ccc12 (single isomer, unassigned) [Example 21, N-(2,2,2-trifluoro-1-(6-fluoro-3′-((2-((4-fluoro-3-(trifluoromethyl)phenyl)carbamoyl)-6-(trifluoromethyl)benzo[b]thiophen-3-yl)carbamoyl)-4′-methoxy-[1,1′-biphenyl]-3-yl)ethyl)tetrahydro-2H-pyran-4-carboxamide]
- EC50: 0.363 µM

Compound: COc1ccc(-c2cnc(C3(O)CCS(=O)(=O)C3)nc2)cc1C(=O)Nc1c(C(=O)Nc2ccc(F)c(C(F)(F)F)c2)sc2cc(C(F)(F)F)ccc12 (single isomer, unassigned) [Example 23, N-(4-fluoro-3-(trifluoromethyl)phenyl)-3-(5-(2-(3-hydroxy-1,1-dioxidotetrahydrothiophen-3-yl)pyrimidin-5-yl)-2-methoxybenzamido)-6-(trifluoromethyl)benzo[b]thiophene-2-carboxamide]
- EC50: 3.1 µM

Compound: COc1ccc(-c2cnc(C3(O)CCS(=O)(=O)C3)nc2)cc1C(=O)Nc1c(C(=O)Nc2ccc(F)c(C(F)(F)F)c2)sc2cc(C(F)(F)F)ccc12 (single isomer, unassigned) [Example 24, N-(4-fluoro-3-(trifluoromethyl)phenyl)-3-(5-(2-(3-hydroxy-1,1-dioxidotetrahydrothiophen-3-yl)pyrimidin-5-yl)-2-methoxybenzamido)-6-(trifluoromethyl)benzo[b]thiophene-2-carboxamide]
- EC50: 3.36 µM

Compound: COc1ccc(-c2cccc(C(NC(=O)C3CCOCC3)C(=O)O)c2)cc1C(=O)Nc1c(C(=O)Nc2ccc(F)c(C(F)(F)F)c2)sc2cc(C(F)(F)F)ccc12 (single isomer, unassigned) [Example 25, 2-(3′-((2-((4-fluoro-3-(trifluoromethyl)phenyl)carbamoyl)-6-(trifluoromethyl)benzo[b]thiophen-3-yl)carbamoyl)-4′-methoxy-[1, 1′-biphenyl]-3-yl)-2-(tetrahydro-2H-pyran-4-carboxamido) acetic acid]
- EC50: 0.0038 µM

Compound: COc1ccc(C2CCCC(O)C2)cc1C(=O)Nc1c(C(=O)Nc2ccc(F)c(C(F)(F)F)c2)sc2cc(C(F)(F)F)ccc12 (single isomer, unassigned) [Example 32, N-(4-fluoro-3-(trifluoromethyl)phenyl)-3-(5-(3-hydroxycyclohexyl)-2-methoxybenzamido)-6-(trifluoromethyl)benzo[b]thiophene-2-carboxamide]
- EC50: 0.718 µM

Compound: COc1ccc(C2CCCC(O)C2)cc1C(=O)Nc1c(C(=O)Nc2ccc(F)c(C(F)(F)F)c2)sc2cc(C(F)(F)F)ccc12 (single isomer, unassigned) [Example 33, N-(4-fluoro-3-(trifluoromethyl)phenyl)-3-(5-(3-hydroxycyclohexyl)-2-methoxybenzamido)-6-(trifluoromethyl)benzo[b]thiophene-2-carboxamide]
- EC50: 0.216 µM

Compound: COc1ccc(C2CCCC(C)(O)C2)cc1C(=O)Nc1c(C(=O)Nc2ccc(F)c(C(F)(F)F)c2)sc2cc(C(F)(F)F)ccc12 (single isomer, unassigned) [Example 34, N-(4-fluoro-3-(trifluoromethyl)phenyl)-3-(5-(3-hydroxy-3-methylcyclohexyl)-2-methoxybenzamido)-6-(trifluoromethyl)benzo[b]thiophene-2-carboxamide]
- EC50: 0.85 µM
